# From patent US20250262230A1, “HMGB1 Inhibitors for Treatment of APOE4-related Tauopathies including Alzheimer’s Disease” (The J. David Gladstone Institutes, a testamentary trust …, priority 2022, published 2025)
# B1: HMGB1: recombinant HMGB1 protein used to treat primary neurons (protein, listed as Homo sapiens)
# chain: MGKGDPKKPRGKMSSYAFFVQTCREEHKKKHPDASVNFSEFSKKCSERWKTMSAKEKGKFEDMAKADKARYEREMKTYIPPKGETKKKFKDPNAPKRPPSAFFLFCSEYRPKIKGEHPGLSIGDVAKKLGEMWNNTAADDKQPYEKKAAKLKEKYEKDIAAYRAKGKPDAAKKGVVKAEKSKKKKEEEEDEEDEEDEEEEEDEEDEDEEEDDDDE
# Legend:
# [1] = tested on: PS19-fE4/GFAP-Cre primary neurons; assay: Recombinant protein treatment of primary neurons, APOE sandwich ELISA of cell lysates; format: cell-based, mouse; conditions: 10 μg/mL recombinant protein, 24 hours, day 14 in vitro
# Description: (§1) Biochemically extracted mouse hippocampal tissue lysates were diluted in Milli-Q H2O to the appropriate concentration and were run according to the provided manufacturer protocols (human APOE (Abcam); mouse HMGB1 (Novus Biologicals). Reactions of samples were read on a SpectraMaX M5 spectrophotometer (Molecular Devices) and protein concentrations were determined after interpolating a standard curve and adjusting for dilutions.
# (§2) Primary cultures of neurons were prepared from prenatal E20 pups of various genotypes. After collecting pup brains, the cortex plus hippocampus were isolated and placed in ice-cold dissociation media+kyneurenic acid media (DM/KY) (DM:Na2SO4 (81.8 mM); K2SO4 (30 mM); MgCl2 (5.8 mM), CaCl2) (0.25 mM); HEPES (1 mM); glucose (20 mM); phenol red (0.001%); NaOH (0.16 mM) in distilled H2O) (KY: kynurenic acid (10 mM); phenol red (0.0025%); HEPES (5 mM); MgCl2 (100 mM); NaOH (add dropwise until pH 7.4). The resulting DM/KY media was made by combining 90% DM with 10% KY media. The isolated tissue was finely minced and then submerged in pre-warmed Papain solution (1 mL per brain) for 13 minutes while gently inverting and then submerged in trypsin inhibitor solution for 5 minutes (5 mL for up to 10 brains) while gently inverting. The tissue pellet was washed with Optimem/Glucose solution (20 mM glucose, 1 mL per brain) while gently inverting. Then, fresh Optimem/Glucose solution was added and tissue was gently triturated until separated into single cells. After filtering the cells through a 40 um cell strainer, the dissociated cells were plated at 1×10^6 cells/well of a 12-well plate or 3×10^5 cells/well of a 24-well plate in Neurobasal medium supplemented with B27, 100 U/mL^−1 of penicillin G, 100 µg/mL^−1 of streptomycin, and 1% GlutaMAX (B27/Neurobasal). Every 3-4 days, half of the media was removed and replaced with fresh B27/Neurobasal media. In some experiments, primary neurons were treated with either a Dulbecco's PBS (dPBS) vehicle or a recombinant protein of interest (10 μg/mL for one well of a 12-well plate) for 24 hours at day 14 in vitro. […]
# (§3) The inventors hypothesized that astrocytic APOE4 may regulate neuronal APOE4 expression by promoting the release of these factors that activate the neuronal ERK pathway, leading to increased neuronal APOE4 expression. […] The APOE protein levels were then quantitatively evaluated in the primary neuronal cell lysates by sandwich ELISA.
# (§4) Experiments were also performed to determine whether HMGB1 is a potential modulatory factor of neuronal APOE4 expression. As such, primary neurons isolated from PS19-fE4/GFAP-Cre and PS19-fE4 mice were treated with 10 μg/mL of recombinant HMGB1 protein or a dPBS control and the APOE protein levels were quantitatively evaluated in cell lysates by sandwich ELISA.
# PS19-fE4 primary neurons = assay: as above; format: cell-based, mouse; conditions: 10 μg/mL recombinant protein, 24 hours, day 14 in vitro
# Description: as §1, §2, §3, §4
Molecule,increase in APOE protein levels relative to the dPBS control [1] [%],APOE protein levels in cell lysates vs dPBS control (PS19-fE4 primary neurons),APOE protein levels in cell lysates vs dPBS control [1]
DPP10: recombinant DPP10 protein used to treat primary neurons,98,no significant difference in APOE levels,–
B1,–,A significant difference was not observed,A significant difference was not observed
